From the NIST ThermoML archive (doi:10.1016/j.jct.2019.02.028)
Numbers after ± are expanded uncertainties.

Assay: xn = mol fraction of the nth substance listed
Conditions: Gas, Burnett expansion method

C=C(F)C(F)(F)F [2,3,3,3-tetrafluoro-1-propene] + FCF
mass density (298.75 K, 572.1 kPa, x2 = 0.119): 28.04 ± 0.54 kg/m3
mass density (298.79 K, 1055.5 kPa, x2 = 0.698): 36.11 ± 0.34 kg/m3
mass density (298.8 K, 475.09 kPa, x2 = 0.449): 18 ± 0.17 kg/m3
mass density (298.8 K, 476.95 kPa, x2 = 0.259): 20.72 ± 0.18 kg/m3
mass density (298.8 K, 518.4 kPa, x2 = 0.698): 16.01 ± 0.15 kg/m3
mass density (298.8 K, 684.19 kPa, x2 = 0.449): 27.04 ± 0.21 kg/m3
mass density (298.82 K, 748.46 kPa, x2 = 0.698): 24.04 ± 0.22 kg/m3
mass density (298.86 K, 487.12 kPa, x2 = 0.874): 12.55 ± 0.15 kg/m3
mass density (298.86 K, 1393.8 kPa, x2 = 0.874): 42.51 ± 0.35 kg/m3
mass density (298.87 K, 1004.6 kPa, x2 = 0.874): 28.3 ± 0.32 kg/m3
mass density (298.93 K, 704.35 kPa, x2 = 0.874): 18.84 ± 0.22 kg/m3
mass density (308.66 K, 1524.8 kPa, x2 = 0.698): 54.21 ± 0.54 kg/m3
mass density (308.68 K, 1108.2 kPa, x2 = 0.698): 36.09 ± 0.34 kg/m3
mass density (308.69 K, 597.54 kPa, x2 = 0.119): 28.02 ± 0.15 kg/m3
mass density (308.7 K, 493.92 kPa, x2 = 0.449): 17.99 ± 0.17 kg/m3
mass density (308.7 K, 496.45 kPa, x2 = 0.259): 20.72 ± 0.17 kg/m3
mass density (308.71 K, 538.99 kPa, x2 = 0.698): 16 ± 0.15 kg/m3
mass density (308.71 K, 714.14 kPa, x2 = 0.449): 27.02 ± 0.25 kg/m3
mass density (308.71 K, 842.28 kPa, x2 = 0.119): 42.09 ± 0.28 kg/m3
mass density (308.72 K, 712.34 kPa, x2 = 0.259): 31.11 ± 0.24 kg/m3
mass density (308.72 K, 997.47 kPa, x2 = 0.259): 46.73 ± 0.35 kg/m3
mass density (308.73 K, 780.62 kPa, x2 = 0.698): 24.03 ± 0.22 kg/m3
mass density (308.74 K, 1976.1 kPa, x2 = 0.874): 63.81 ± 0.55 kg/m3
mass density (308.76 K, 1011.1 kPa, x2 = 0.449): 40.58 ± 0.37 kg/m3
mass density (308.77 K, 1470.2 kPa, x2 = 0.874): 42.48 ± 0.51 kg/m3
mass density (308.78 K, 1051.3 kPa, x2 = 0.874): 28.28 ± 0.33 kg/m3
mass density (308.79 K, 506.01 kPa, x2 = 0.874): 12.54 ± 0.15 kg/m3
mass density (308.82 K, 733.43 kPa, x2 = 0.874): 18.83 ± 0.22 kg/m3
mass density (313.6 K, 1566.5 kPa, x2 = 0.698): 54.19 ± 0.54 kg/m3
mass density (313.64 K, 503.35 kPa, x2 = 0.449): 17.98 ± 0.17 kg/m3
mass density (313.64 K, 1134 kPa, x2 = 0.698): 36.08 ± 0.34 kg/m3
mass density (313.65 K, 610.01 kPa, x2 = 0.119): 28.01 ± 0.15 kg/m3
mass density (313.66 K, 506.36 kPa, x2 = 0.259): 20.71 ± 0.17 kg/m3
mass density (313.66 K, 728.88 kPa, x2 = 0.449): 27.01 ± 0.25 kg/m3
mass density (313.67 K, 796.71 kPa, x2 = 0.698): 24.02 ± 0.22 kg/m3
mass density (313.68 K, 549.32 kPa, x2 = 0.698): 15.99 ± 0.15 kg/m3
mass density (313.68 K, 727.83 kPa, x2 = 0.259): 31.11 ± 0.24 kg/m3
mass density (313.68 K, 862.42 kPa, x2 = 0.119): 42.07 ± 0.28 kg/m3
mass density (313.68 K, 1021.8 kPa, x2 = 0.259): 46.73 ± 0.35 kg/m3
mass density (313.7 K, 1507.4 kPa, x2 = 0.874): 42.47 ± 0.51 kg/m3
mass density (313.7 K, 2038.5 kPa, x2 = 0.874): 63.79 ± 0.55 kg/m3
mass density (313.72 K, 1034.8 kPa, x2 = 0.449): 40.57 ± 0.37 kg/m3
mass density (313.72 K, 1074 kPa, x2 = 0.874): 28.28 ± 0.33 kg/m3
mass density (313.74 K, 515.35 kPa, x2 = 0.874): 12.53 ± 0.15 kg/m3
mass density (313.79 K, 747.77 kPa, x2 = 0.874): 18.83 ± 0.22 kg/m3
mass density (318.62 K, 1609.8 kPa, x2 = 0.698): 54.18 ± 0.53 kg/m3
mass density (318.68 K, 1159.3 kPa, x2 = 0.698): 36.07 ± 0.34 kg/m3
mass density (318.7 K, 2100 kPa, x2 = 0.874): 63.77 ± 0.91 kg/m3
mass density (318.72 K, 512.99 kPa, x2 = 0.449): 17.98 ± 0.16 kg/m3
mass density (318.72 K, 882.63 kPa, x2 = 0.119): 42.06 ± 0.26 kg/m3
mass density (318.72 K, 1210.1 kPa, x2 = 0.119): 63.25 ± 0.45 kg/m3
mass density (318.73 K, 516.26 kPa, x2 = 0.259): 20.71 ± 0.17 kg/m3
mass density (318.73 K, 743.73 kPa, x2 = 0.449): 27 ± 0.24 kg/m3
mass density (318.73 K, 813.03 kPa, x2 = 0.698): 24.02 ± 0.22 kg/m3
mass density (318.73 K, 1463.2 kPa, x2 = 0.449): 61.04 ± 0.6 kg/m3
mass density (318.74 K, 559.65 kPa, x2 = 0.698): 15.99 ± 0.15 kg/m3
mass density (318.74 K, 743.48 kPa, x2 = 0.259): 31.1 ± 0.24 kg/m3
mass density (318.74 K, 1046.5 kPa, x2 = 0.259): 46.72 ± 0.45 kg/m3
mass density (318.74 K, 1058.5 kPa, x2 = 0.449): 40.56 ± 0.38 kg/m3
mass density (318.74 K, 1097.2 kPa, x2 = 0.874): 28.27 ± 0.33 kg/m3
mass density (318.74 K, 1544.9 kPa, x2 = 0.874): 42.46 ± 0.51 kg/m3
mass density (318.75 K, 622.85 kPa, x2 = 0.119): 28 ± 0.15 kg/m3
mass density (318.77 K, 762.25 kPa, x2 = 0.874): 18.82 ± 0.22 kg/m3
mass density (318.78 K, 525.03 kPa, x2 = 0.874): 12.53 ± 0.15 kg/m3
mass density (323.56 K, 1650.9 kPa, x2 = 0.698): 54.16 ± 0.53 kg/m3
mass density (323.62 K, 1184.6 kPa, x2 = 0.698): 36.06 ± 0.34 kg/m3
mass density (323.62 K, 2161.1 kPa, x2 = 0.874): 63.75 ± 0.74 kg/m3
mass density (323.67 K, 522.17 kPa, x2 = 0.449): 17.97 ± 0.16 kg/m3
mass density (323.67 K, 902.39 kPa, x2 = 0.119): 42.05 ± 0.26 kg/m3
mass density (323.67 K, 2803.5 kPa, x2 = 0.874): 96.27 ± 0.9 kg/m3
mass density (323.68 K, 525.72 kPa, x2 = 0.259): 20.71 ± 0.17 kg/m3
mass density (323.68 K, 569.78 kPa, x2 = 0.698): 15.98 ± 0.15 kg/m3
mass density (323.68 K, 758.4 kPa, x2 = 0.449): 27 ± 0.24 kg/m3
mass density (323.68 K, 828.96 kPa, x2 = 0.698): 24.01 ± 0.22 kg/m3
mass density (323.68 K, 1081.3 kPa, x2 = 0.449): 40.55 ± 0.38 kg/m3
mass density (323.69 K, 533.88 kPa, x2 = 0.874): 12.53 ± 0.15 kg/m3
mass density (323.69 K, 758.79 kPa, x2 = 0.259): 31.1 ± 0.23 kg/m3
mass density (323.69 K, 1070.4 kPa, x2 = 0.259): 46.71 ± 0.38 kg/m3
mass density (323.69 K, 1460 kPa, x2 = 0.259): 70.1 ± 0.56 kg/m3
mass density (323.69 K, 1502 kPa, x2 = 0.449): 61.01 ± 0.59 kg/m3
mass density (323.69 K, 2207.6 kPa, x2 = 0.698): 81.35 ± 0.89 kg/m3
mass density (323.7 K, 635.26 kPa, x2 = 0.119): 27.99 ± 0.15 kg/m3
mass density (323.7 K, 1243.5 kPa, x2 = 0.119): 63.23 ± 0.44 kg/m3
mass density (323.7 K, 1581.8 kPa, x2 = 0.874): 42.45 ± 0.5 kg/m3
mass density (323.71 K, 776.56 kPa, x2 = 0.874): 18.81 ± 0.22 kg/m3
mass density (323.73 K, 1120.2 kPa, x2 = 0.874): 28.26 ± 0.33 kg/m3
mass density (328.55 K, 1691.6 kPa, x2 = 0.698): 54.15 ± 0.53 kg/m3
mass density (328.58 K, 1209.7 kPa, x2 = 0.698): 36.05 ± 0.33 kg/m3
mass density (328.6 K, 543.23 kPa, x2 = 0.874): 12.52 ± 0.15 kg/m3
mass density (328.61 K, 531.32 kPa, x2 = 0.449): 17.97 ± 0.16 kg/m3
mass density (328.61 K, 772.98 kPa, x2 = 0.449): 26.99 ± 0.24 kg/m3
mass density (328.61 K, 1275.3 kPa, x2 = 0.119): 63.21 ± 0.43 kg/m3
mass density (328.62 K, 579.61 kPa, x2 = 0.698): 15.98 ± 0.15 kg/m3
mass density (328.62 K, 2220.5 kPa, x2 = 0.874): 63.73 ± 0.74 kg/m3
mass density (328.62 K, 2904.2 kPa, x2 = 0.874): 96.19 ± 0.88 kg/m3
mass density (328.63 K, 535.28 kPa, x2 = 0.259): 20.7 ± 0.17 kg/m3
mass density (328.63 K, 844.62 kPa, x2 = 0.698): 24 ± 0.22 kg/m3
mass density (328.63 K, 922.19 kPa, x2 = 0.119): 42.04 ± 0.25 kg/m3
mass density (328.63 K, 1094.6 kPa, x2 = 0.259): 46.71 ± 0.38 kg/m3
mass density (328.63 K, 1105.1 kPa, x2 = 0.449): 40.54 ± 0.38 kg/m3
mass density (328.63 K, 1499.1 kPa, x2 = 0.259): 70.09 ± 0.57 kg/m3
mass density (328.64 K, 647.48 kPa, x2 = 0.119): 27.99 ± 0.15 kg/m3
mass density (328.64 K, 773.73 kPa, x2 = 0.259): 31.1 ± 0.23 kg/m3
mass density (328.64 K, 1540.2 kPa, x2 = 0.449): 60.98 ± 0.59 kg/m3
mass density (328.64 K, 2275.8 kPa, x2 = 0.698): 81.33 ± 0.87 kg/m3
mass density (328.65 K, 1617.6 kPa, x2 = 0.874): 42.43 ± 0.5 kg/m3
mass density (328.66 K, 790.86 kPa, x2 = 0.874): 18.81 ± 0.22 kg/m3
mass density (328.67 K, 1142.6 kPa, x2 = 0.874): 28.25 ± 0.33 kg/m3
mass density (333.46 K, 1731.9 kPa, x2 = 0.698): 54.13 ± 0.52 kg/m3
mass density (333.56 K, 540.51 kPa, x2 = 0.449): 17.96 ± 0.16 kg/m3
mass density (333.57 K, 941.58 kPa, x2 = 0.119): 42.02 ± 0.25 kg/m3
mass density (333.57 K, 1235.3 kPa, x2 = 0.698): 36.04 ± 0.33 kg/m3
mass density (333.57 K, 2278.9 kPa, x2 = 0.874): 63.71 ± 0.73 kg/m3
mass density (333.57 K, 2342.7 kPa, x2 = 0.698): 81.3 ± 0.85 kg/m3
mass density (333.58 K, 544.62 kPa, x2 = 0.259): 20.7 ± 0.17 kg/m3
mass density (333.58 K, 1578 kPa, x2 = 0.449): 60.96 ± 0.62 kg/m3
mass density (333.58 K, 1734.6 kPa, x2 = 0.119): 94.99 ± 0.76 kg/m3
mass density (333.58 K, 2115 kPa, x2 = 0.449): 91.6 ± 0.99 kg/m3
mass density (333.58 K, 3002.9 kPa, x2 = 0.874): 96.12 ± 1.5 kg/m3
mass density (333.59 K, 659.59 kPa, x2 = 0.119): 27.98 ± 0.15 kg/m3
mass density (333.59 K, 787.46 kPa, x2 = 0.449): 26.98 ± 0.24 kg/m3
mass density (333.59 K, 788.83 kPa, x2 = 0.259): 31.09 ± 0.23 kg/m3
